# Experimental data published in ChEMBL document CHEMBL4725357, “Elucidating the Structural Requirement of Uridylpeptide Antibiotics for Antibacterial Activity” (J Med Chem, 2020).
# pIC50: −log10 of the molar value.
# Key:
# [1] = Inhibition of Staphylococcus aureus MraY using UDPMurNAc-dansylpentapeptide as substrate incubated for 3 hrs by fluorescence method
# Pseudomonas aeruginosa = assay: Antibacterial activity against Pseudomonas aeruginosa PAO1 incubated for 18 hrs by CLSI based broth microdilution method; type: functional
# [2] = Inhibition of Staphylococcus aureus MraY using UDPMurNAc-dansylpentapeptide as substrate incubated for 3 to 4 hrs by fluorescence method
Structure (SMILES),pIC50 [1],MIC (Pseudomonas aeruginosa),pIC50 [2]
C[C@@H]([C@H](NC(=O)[C@H](CC(=O)O)NC(=O)N[C@@H](Cc1c[nH]c2ccccc12)C(=O)O)C(=O)N/C=C1\O[C@@H](n2ccc(=O)[nH]c2=O)[C@H](O)[C@@H]1O)N(C)C(=O)[C@@H](N)Cc1cccc(O)c1,8.12,> 128 mg/L,
C[C@@H]([C@H](NC(=O)[C@@H]1CCCN1C(=O)N[C@@H](Cc1c[nH]c2ccccc12)C(=O)O)C(=O)N/C=C1\O[C@@H](n2ccc(=O)[nH]c2=O)[C@H](O)[C@@H]1O)N(C)C(=O)[C@@H](N)Cc1cccc(O)c1,< 6.30,> 128 mg/L,
CC(=O)N[C@H](C(=O)N/C=C1\O[C@@H](n2ccc(=O)[nH]c2=O)[C@H](O)[C@@H]1O)[C@H](C)N(C)C(=O)[C@@H](N)Cc1cccc(O)c1,< 6.00,,
CC(=O)N[C@@H](C)C(=O)N[C@H](C(=O)N/C=C1\O[C@@H](n2ccc(=O)[nH]c2=O)[C@H](O)[C@@H]1O)[C@H](C)N(C)C(=O)[C@@H](N)Cc1cccc(O)c1,< 6.00,,
C[C@@H]([C@H](NC(=O)[C@H](CCCNC(=N)N)NC(=O)N[C@@H](Cc1c[nH]c2ccccc12)C(=O)O)C(=O)N/C=C1\O[C@@H](n2ccc(=O)[nH]c2=O)[C@H](O)[C@@H]1O)N(C)C(=O)[C@@H](N)Cc1cccc(O)c1,8.47,> 128 mg/L,
C[C@H](N)C(=O)N(C)[C@@H](C)[C@H](NC(=O)[C@H](C)NC(=O)N[C@@H](Cc1c[nH]c2ccccc12)C(=O)O)C(=O)N/C=C1/CC(O)[C@H](n2ccc(=O)[nH]c2=O)O1 (stereo partly drawn),,,7.66
CCCCCCCCCCCCCCCC(=O)N[C@@H](C)C(=O)N[C@H](C(=O)N/C=C1\O[C@@H](n2ccc(=O)[nH]c2=O)[C@H](O)[C@@H]1O)[C@H](C)N(C)C(=O)[C@@H](N)Cc1cccc(O)c1,< 6.00,,

# The remaining compounds from weak to strong by pIC50 [1], led by results:
pIC50 [1],MIC (Pseudomonas aeruginosa),pIC50 [2],Structure (SMILES)
8.48,128 mg/L,,C[C@@H]([C@H](NC(=O)[C@H](CCC(=O)O)NC(=O)N[C@@H](Cc1c[nH]c2ccccc12)C(=O)O)C(=O)N/C=C1\O[C@@H](n2ccc(=O)[nH]c2=O)[C@H](O)[C@@H]1O)N(C)C(=O)[C@@H](N)Cc1cccc(O)c1
8.55,> 128 mg/L,,C[C@@H]([C@H](NC(=O)[C@H](Cc1cnc[nH]1)NC(=O)N[C@@H](Cc1c[nH]c2ccccc12)C(=O)O)C(=O)N/C=C1\O[C@@H](n2ccc(=O)[nH]c2=O)[C@H](O)[C@@H]1O)N(C)C(=O)[C@@H](N)Cc1cccc(O)c1
8.57,,,CCCCCCCCCCCCCCC[C@H](N)C(=O)NCCCN[C@H](C(=O)O)[C@H](O[C@@H]1O[C@H](CN)[C@@H](O)[C@H]1O)[C@H]1O[C@@H](n2ccc(=O)[nH]c2=O)[C@H](O)[C@@H]1O
8.68,> 128 mg/L,,C[C@@H]([C@H](NC(=O)[C@H](CC(N)=O)NC(=O)N[C@@H](Cc1c[nH]c2ccccc12)C(=O)O)C(=O)N/C=C1\O[C@@H](n2ccc(=O)[nH]c2=O)[C@H](O)[C@@H]1O)N(C)C(=O)[C@@H](N)Cc1cccc(O)c1
8.74,> 128 mg/L,,C[C@@H]([C@H](NC(=O)[C@H](CO)NC(=O)N[C@@H](Cc1c[nH]c2ccccc12)C(=O)O)C(=O)N/C=C1\O[C@@H](n2ccc(=O)[nH]c2=O)[C@H](O)[C@@H]1O)N(C)C(=O)[C@@H](N)Cc1cccc(O)c1
8.80,128 mg/L,,C[C@@H]([C@H](NC(=O)[C@H](CS)NC(=O)N[C@@H](Cc1c[nH]c2ccccc12)C(=O)O)C(=O)N/C=C1\O[C@@H](n2ccc(=O)[nH]c2=O)[C@H](O)[C@@H]1O)N(C)C(=O)[C@@H](N)Cc1cccc(O)c1
8.82,16 mg/L,,CC(C)[C@H](NC(=O)N[C@@H](Cc1c[nH]c2ccccc12)C(=O)O)C(=O)N[C@H](C(=O)N/C=C1\O[C@@H](n2ccc(=O)[nH]c2=O)[C@H](O)[C@@H]1O)[C@H](C)N(C)C(=O)[C@@H](N)Cc1cccc(O)c1
